Mutagenic call data for 3 compounds are collected here from PubChem BioAssay AID1259407 (Chemical Carcinogenesis Research Information System (CCRIS), 2018).

Each structure is given as a SMILES string. Calls of active or inactive are those of the source. No rule for the calls is given here.

The subject of this data set is CCRIS mutagenicity, Ames/micronucleus/aberration tests. Kind of data set: CCRIS mutagenicity studies.
Setting [1] is: Test System: AMES SALMONELLA TYPHIMURIUM, Strain/Indicator: TA98, Metabolic Activation: NONE, Method: PREINCUBATION

Take `CNNCc1ccc(C(=O)NC(C)C)cc1`: the mutagenic call is “inactive; negative” (Test System: AMES SALMONELLA TYPHIMURIUM, Strain/Indicator: TA97, Metabolic Activation: HAMSTER, LIVER, S-9, AROCLOR 1254 (10 OR 30%), Method: PREINCUBATION); “inactive; negative” (Test System: AMES SALMONELLA TYPHIMURIUM, Strain/Indicator: TA97, Metabolic Activation: NONE, Method: PREINCUBATION); “inactive; negative” (Test System: AMES SALMONELLA TYPHIMURIUM, Strain/Indicator: TA97, Metabolic Activation: RAT, LIVER, S-9, AROCLOR 1254 (10 OR 30%), Method: PREINCUBATION); “inactive; negative” (Test System: AMES SALMONELLA TYPHIMURIUM, Strain/Indicator: TA98, Metabolic Activation: HAMSTER, LIVER, S-9, AROCLOR 1254 (10 OR 30%), Method: PREINCUBATION); “inactive; negative” under setting [1]; “inactive; negative” (Test System: AMES SALMONELLA TYPHIMURIUM, Strain/Indicator: TA98, Metabolic Activation: NONE, Method: STANDARD PLATE). Also, the mutagenic call is “inactive; negative” (Test System: AMES SALMONELLA TYPHIMURIUM, Strain/Indicator: TA98, Metabolic Activation: RAT, LIVER, S-9, AROCLOR 1254 (10 OR 30%), Method: PREINCUBATION); “inactive; negative” (Test System: AMES SALMONELLA TYPHIMURIUM, Strain/Indicator: TA98, Metabolic Activation: S-9, Method: PREINCUBATION); “inactive; negative” (Test System: AMES SALMONELLA TYPHIMURIUM, Strain/Indicator: TA98, Metabolic Activation: S-9, Method: STANDARD PLATE); “inactive; negative” (Test System: AMES SALMONELLA TYPHIMURIUM, Strain/Indicator: TA100, Metabolic Activation: HAMSTER, LIVER, S-9, AROCLOR 1254 (10 OR 30%), Method: PREINCUBATION); “inactive; negative” (Test System: AMES SALMONELLA TYPHIMURIUM, Strain/Indicator: TA100, Metabolic Activation: NONE, Method: PREINCUBATION); “inactive; negative” (Test System: AMES SALMONELLA TYPHIMURIUM, Strain/Indicator: TA100, Metabolic Activation: NONE, Method: STANDARD PLATE). The mutagenic call was “inactive; negative” (Test System: AMES SALMONELLA TYPHIMURIUM, Strain/Indicator: TA100, Metabolic Activation: RAT, LIVER, S-9, AROCLOR 1254 (10 OR 30%), Method: PREINCUBATION); “inactive; negative” (Test System: AMES SALMONELLA TYPHIMURIUM, Strain/Indicator: TA100, Metabolic Activation: RAT, LIVER, S-9, PYRAZOLE, Method: PREINCUBATION); “inactive; negative” (Test System: AMES SALMONELLA TYPHIMURIUM, Strain/Indicator: TA100, Metabolic Activation: S-9, Method: PREINCUBATION); “inactive; negative” (Test System: AMES SALMONELLA TYPHIMURIUM, Strain/Indicator: TA100, Metabolic Activation: S-9, Method: STANDARD PLATE); “inactive; negative” (Test System: AMES SALMONELLA TYPHIMURIUM, Strain/Indicator: TA1530 (PKM101), Metabolic Activation: RAT, LIVER, S-9, ETHANOL, Method: PREINCUBATION); “inactive; negative” (Test System: AMES SALMONELLA TYPHIMURIUM, Strain/Indicator: TA1530 (PKM101), Metabolic Activation: RAT, LIVER, S-9, PYRAZOLE, Method: PREINCUBATION). Further, the mutagenic call (Test System: AMES SALMONELLA TYPHIMURIUM, Strain/Indicator: TA1535, Metabolic Activation: HAMSTER, LIVER, S-9, AROCLOR 1254 (10 OR 30%), Method: PREINCUBATION) was “inactive; negative”; the mutagenic call (Test System: AMES SALMONELLA TYPHIMURIUM, Strain/Indicator: TA1535, Metabolic Activation: NONE, Method: PREINCUBATION) was “inactive; negative”; the mutagenic call (Test System: AMES SALMONELLA TYPHIMURIUM, Strain/Indicator: TA1535, Metabolic Activation: RAT, LIVER, S-9, AROCLOR 1254 (10 OR 30%), Method: PREINCUBATION) was “inactive; negative”; the mutagenic call (Test System: AMES SALMONELLA TYPHIMURIUM, Strain/Indicator: TA1535, Metabolic Activation: RAT, LIVER, S-9, PYRAZOLE, Method: PREINCUBATION) is “inactive; negative”; the mutagenic call (Test System: AMES SALMONELLA TYPHIMURIUM, Strain/Indicator: TA1537, Metabolic Activation: HAMSTER, LIVER, S-9, AROCLOR 1254 (10 OR 30%), Method: PREINCUBATION) was “inactive; negative”; the mutagenic call (Test System: AMES SALMONELLA TYPHIMURIUM, Strain/Indicator: TA1537, Metabolic Activation: NONE, Method: PREINCUBATION) is “inactive; negative”. Besides, the mutagenic call (Test System: AMES SALMONELLA TYPHIMURIUM, Strain/Indicator: TA1537, Metabolic Activation: RAT, LIVER, S-9, AROCLOR 1254 (10 OR 30%), Method: PREINCUBATION) was “inactive; negative”; the mutagenic call (Test System: CHINESE HAMSTER OVARY, Strain/Indicator: CHO-K1-BH4 (HGPRT), Metabolic Activation: RAT, LIVER, S-9, AROCLOR, Method: SUSPENSION/PLATE) was “active; positive”; the mutagenic call (Test System: CHINESE HAMSTER V-79, Strain/Indicator: V-79/6-THIOGUANINE, Metabolic Activation: NONE, Method: CELL-MEDIATED) is “active; positive”; the mutagenic call (Test System: CHINESE HAMSTER V-79, Strain/Indicator: V-79/6-THIOGUANINE, Metabolic Activation: RAT, LIVER, HEPATOCYTES, AROCLOR 1254, Method: CELL-MEDIATED) was “active; positive”; the mutagenic call (Test System: CHINESE HAMSTER V-79, Strain/Indicator: V-79/6-THIOGUANINE, Metabolic Activation: RAT, LIVER, HEPATOCYTES, Method: CELL-MEDIATED) was “active; positive”; the mutagenic call (Test System: CHINESE HAMSTER V-79, Strain/Indicator: V-79/6-THIOGUANINE, Metabolic Activation: RAT, LIVER, S-9, AROCLOR 1254, Method: CELL-MEDIATED) is “active; positive”. Moreover, the mutagenic call (Test System: CHINESE HAMSTER V-79, Strain/Indicator: V-79/6-THIOGUANINE, Metabolic Activation: RAT, LIVER, S-9, Method: CELL-MEDIATED) is “active; positive”; the mutagenic call (Test System: E. COLI, Strain/Indicator: WP2 (HCR), Metabolic Activation: NONE, Method: STANDARD PLATE) is “inactive; negative”; the mutagenic call (Test System: E. COLI, Strain/Indicator: WP2 (HCR), Metabolic Activation: S-9, Method: STANDARD PLATE) is “inactive; negative”; the mutagenic call (Test System: E. COLI, Strain/Indicator: WP2 (PKM101), Metabolic Activation: RAT, LIVER, S-9, PYRAZOLE, Method: PREINCUBATION) was “inactive; negative”; the mutagenic call (Test System: E. COLI, Strain/Indicator: WP2 UVRA (PKM101), Metabolic Activation: RAT, LIVER, S-9, PYRAZOLE, Method: PREINCUBATION) was “inactive; negative”; the mutagenic call (Test System: E. COLI, Strain/Indicator: WP2 UVRA, Metabolic Activation: HAMSTER, LIVER, S-9, AROCLOR 1254, Method: STANDARD PLATE) is “inactive; negative”. Also, the mutagenic call reads like this: (Test System: E. COLI, Strain/Indicator: WP2 UVRA, Metabolic Activation: HAMSTER, LIVER, S-9, Method: STANDARD PLATE) “inactive; negative”; (Test System: E. COLI, Strain/Indicator: WP2 UVRA, Metabolic Activation: MOUSE, LIVER, S-9, AROCLOR 1254, Method: STANDARD PLATE) “inactive; negative”; (Test System: E. COLI, Strain/Indicator: WP2 UVRA, Metabolic Activation: MOUSE, LIVER, S-9, Method: STANDARD PLATE) “inactive; negative”; (Test System: E. COLI, Strain/Indicator: WP2 UVRA, Metabolic Activation: NONE, Method: STANDARD PLATE) “inactive; negative”; (Test System: E. COLI, Strain/Indicator: WP2 UVRA, Metabolic Activation: RAT, LIVER, S-9, AROCLOR 1254, Method: STANDARD PLATE) “inactive; negative”; (Test System: E. COLI, Strain/Indicator: WP2 UVRA, Metabolic Activation: RAT, LIVER, S-9, Method: STANDARD PLATE) “inactive; negative”. The mutagenic call was “active; positive” (Test System: MOUSE LYMPHOMA, Strain/Indicator: L5178Y (HGPRT), Metabolic Activation: NONE, Method: SUSPENSION/PLATE); “active; positive” (Test System: MOUSE LYMPHOMA, Strain/Indicator: L5178Y (TK+/TK-), Metabolic Activation: NONE, Method: MICROWELL); “active; positive” (Test System: MOUSE LYMPHOMA, Strain/Indicator: L5178Y (TK+/TK-), Metabolic Activation: NONE, Method: MINIWELL); “active; positive” (Test System: MOUSE LYMPHOMA, Strain/Indicator: L5178Y (TK+/TK-), Metabolic Activation: RAT, LIVER, S-9, AROCLOR 1242 AND 1254 (2:1), Method: SUSPENSION/PLATE); “active; positive” (Test System: MOUSE LYMPHOMA, Strain/Indicator: L5178Y (TK+/TK-), Metabolic Activation: RAT, LIVER, S-9, AROCLOR 1254, Method: SUSPENSION/PLATE).
As to `O=CN(O)c1ccc2ccccc2c1`, the mutagenic call runs as follows: under setting [1], “active; positive”; (Test System: AMES SALMONELLA TYPHIMURIUM, Strain/Indicator: TA98, Metabolic Activation: RAT, LIVER, CYTOSOL, Method: PREINCUBATION) “active; positive”; (Test System: AMES SALMONELLA TYPHIMURIUM, Strain/Indicator: TA98, Metabolic Activation: RAT, LIVER, MICROSOMES, Method: PREINCUBATION) “active; positive”.
On to `Oc1ccc2c(c1)sc1ccccc12`, for which the mutagenic call (Test System: CHINESE HAMSTER OVARY, Strain/Indicator: CHO-K1-BH4 (HGPRT)/6-THIOGUANINE, Metabolic Activation: RAT, LIVER, S-9, AROCLOR (4%)) is “active; positive”.
